Assay results taken from US20240166626A1, “Compounds and Methods for Preventing, Treating, or Ameliorating Airway Disease” (THOMAS JEFFERSON UNIVERSITY, priority 2021, published 2024).

Target: T1, GRK2 (Homo sapiens, UniProt P25098)
T1 sequence (P25098 1-689): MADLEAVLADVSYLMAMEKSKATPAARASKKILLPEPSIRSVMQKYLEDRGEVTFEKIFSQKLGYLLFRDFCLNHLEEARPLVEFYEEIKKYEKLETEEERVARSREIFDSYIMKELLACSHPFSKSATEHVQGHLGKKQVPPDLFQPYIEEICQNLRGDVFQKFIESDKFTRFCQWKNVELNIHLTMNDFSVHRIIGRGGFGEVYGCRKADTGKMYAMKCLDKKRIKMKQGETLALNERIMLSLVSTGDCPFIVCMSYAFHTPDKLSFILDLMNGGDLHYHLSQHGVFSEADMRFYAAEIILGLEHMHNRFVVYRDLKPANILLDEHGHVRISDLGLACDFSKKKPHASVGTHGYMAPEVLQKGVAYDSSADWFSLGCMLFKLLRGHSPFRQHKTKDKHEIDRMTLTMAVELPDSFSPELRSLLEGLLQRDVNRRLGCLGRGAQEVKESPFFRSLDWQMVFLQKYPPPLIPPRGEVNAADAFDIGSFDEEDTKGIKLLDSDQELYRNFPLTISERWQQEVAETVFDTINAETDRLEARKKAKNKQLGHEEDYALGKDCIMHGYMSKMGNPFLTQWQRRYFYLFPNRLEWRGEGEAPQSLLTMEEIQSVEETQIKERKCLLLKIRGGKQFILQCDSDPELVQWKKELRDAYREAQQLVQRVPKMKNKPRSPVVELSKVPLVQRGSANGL
Assay: In vitro tubulin phosphorylation assay with purified GRK2
Assay type: biochemical
Details: 10 μM DFPQ, 60-minute time course, FIG. 3C
Method: FIGS. 3A-3D: DFPQ inhibits GRK-mediated phosphorylation of the β2AR. FIG. 3A: Representative time course of agonist promoted phosphorylation of the β2AR. […] Cells were lysed and the FLAG-β2AR was immunoprecipitated. Phosphorylation at […] and 356 was analyzed by western blot using a pSer^355/356 antibody while total β2AR was measured using a β2AR C-terminal antibody. The western blot is representative of at least 3 experiments and is quantified in FIG. 3B. FIG. 3C: […] FIG. 3D: Bar graphs represent pixel densitometry of radiolabeled tubulin at the 60 min timepoint from 4 experiments. […]® ADRB2 cells (DiscoveRx) were maintained with the AssayCompleteTM Cell Culture kit (DiscoveRx catalog #92-[…]). […] Cells were read every three minutes for 18 minutes on a PolarStar Optima plate reader (BMG) to establish peak signal. […] Luminescence was determined at room temperature (23-25° C.) on a PolarStar Optima plate reader (BMG). […] Relative assay bias was calculated from the ratio of normalized cAMP and arrestin recruitment responses. […] BRET was measured using a Tecan Infinite F500 microplate reader. […] Bound [35 S]GTPγS was collected by rapid filtration on GF/B filters, washed 4 times with 4 ml of cold GTPγS wash buffer and analyzed by liquid scintillation counting. […] Immunoprecipitated proteins were separated by SDS-PAGE and analyzed by western blot using a β2AR C-terminal tail or phospho-specific antibody. […]

Compound: Fc1ccc(Nc2nc(NC3CCCCC3)c3ccccc3n2)cc1F [DFPQ, N^4-cyclohexyl-N^2-(3,4-difluorophenyl)quinazoline-2,4-diamine]
- phosphorylation of tubulin by GRK2: unaffected
